From ChEMBL document CHEMBL1201862, “PubChem BioAssay data set” (2004)
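96-well plates; 48 h exposure; 5 concentrations. Endpoints by linear interpolation between flanking doses. Not reached: highest tested concentration assigned. At the GI50, growth is halved.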 Active and inactive are the calls of the source. Rule as the data show it: active = GI50 up to about 1.1 µM and inactive = higher.

Assays:
Assay in all cases: inhibition of tumour cell growth, NCI panel, 48 h
MCF7 = tested on: MCF7
NCI-H522 = tested on: NCI-H522
ACHN = tested on: ACHN
BT-549 = tested on: BT-549
KM12 = tested on: KM12
OVCAR-8 = tested on: OVCAR-8
MDA-N = tested on: MDA-N
OVCAR-4 = tested on: OVCAR-4
SR = tested on: SR
SK-MEL-2 = tested on: SK-MEL-2
LOX IMVI = tested on: LOX IMVI
A549 = tested on: A549
NCI-H23 = tested on: NCI-H23
UO-31 = tested on: UO-31
OVCAR-3 = tested on: OVCAR-3
CCRF-CEM = tested on: CCRF-CEM
SK-MEL-5 = tested on: SK-MEL-5
M14 = tested on: M14
HOP-62 = tested on: HOP-62
EKVX = tested on: EKVX
NCI-H460 = tested on: NCI-H460
MOLT-4 = tested on: MOLT-4
UACC-62 = tested on: UACC-62
SNB-75 = tested on: SNB-75
SF-295 = tested on: SF-295
SN12C = tested on: SN12C
Hs-578T = tested on: Hs-578T
MDA-MB-231 = tested on: MDA-MB-231
K562 = tested on: K562
COLO 205 = tested on: COLO 205
RXF 393 = tested on: RXF 393
UACC-257 = tested on: UACC-257
786-0 = tested on: 786-0
HT-29 = tested on: HT-29
CAKI-1 = tested on: CAKI-1
HCT-116 = tested on: HCT-116
Malme-3M = tested on: Malme-3M
T47D = tested on: T47D
HCC 2998 = tested on: HCC 2998
HL-60 = tested on: HL-60
TK-10 = tested on: TK-10
SK-OV-3 = tested on: SK-OV-3
SF-268 = tested on: SF-268
HCT-15 = tested on: HCT-15
SF-539 = tested on: SF-539
SNB-19 = tested on: SNB-19
NCI/ADR-RES = tested on: NCI/ADR-RES
IGROV-1 = tested on: IGROV-1
OVCAR-5 = tested on: OVCAR-5
PC-3 = tested on: PC-3
DU-145 = tested on: DU-145
SK-MEL-28 = tested on: SK-MEL-28
SW-620 = tested on: SW-620
U-251 = tested on: U-251
NCI-H226 = tested on: NCI-H226
HOP-92 = tested on: HOP-92
RPMI-8226 = tested on: RPMI-8226
MDA-MB-435 = tested on: MDA-MB-435

COC(=O)c1cc(/C=C/C(=O)Cc2ccccc2)cn1S(=O)(=O)c1ccccc1
GI50 (MCF7): > 100 µM (inactive)
GI50 (NCI-H522): > 100 µM (inactive)
GI50 (ACHN): > 100 µM (inactive)
GI50 (BT-549): > 100 µM (inactive)
GI50 (KM12): > 100 µM (inactive)
GI50 (OVCAR-8): > 100 µM (inactive)
GI50 (MDA-N): > 100 µM (inactive)
GI50 (OVCAR-4): > 100 µM (inactive)
GI50 (SR): > 100 µM (inactive)
GI50 (SK-MEL-2): > 100 µM (inactive)
GI50 (LOX IMVI): > 100 µM (inactive)
GI50 (A549): > 100 µM (inactive)
GI50 (NCI-H23): > 100 µM (inactive)
GI50 (UO-31): > 100 µM (inactive)
GI50 (OVCAR-3): > 100 µM (inactive)
GI50 (CCRF-CEM): > 100 µM (inactive)
GI50 (SK-MEL-5): > 100 µM (inactive)
GI50 (M14): > 100 µM (inactive)
GI50 (HOP-62): > 100 µM (inactive)
GI50 (EKVX): > 100 µM (inactive)
GI50 (NCI-H460): > 100 µM (inactive)
GI50 (MOLT-4): > 100 µM (inactive)
GI50 (UACC-62): > 100 µM (inactive)
GI50 (SNB-75): > 100 µM (inactive)
GI50 (SF-295): > 100 µM (inactive)
GI50 (SN12C): > 100 µM (inactive)
GI50 (Hs-578T): > 100 µM (inactive)
GI50 (MDA-MB-231): > 100 µM (inactive)
GI50 (K562): > 100 µM (inactive)
GI50 (COLO 205): > 100 µM (inactive)
GI50 (RXF 393): > 100 µM (inactive)
GI50 (UACC-257): > 100 µM (inactive)
GI50 (786-0): > 100 µM (inactive)
GI50 (HT-29): > 100 µM (inactive)
GI50 (CAKI-1): > 100 µM (inactive)
GI50 (HCT-116): > 100 µM (inactive)
GI50 (Malme-3M): > 100 µM (inactive)
GI50 (T47D): > 100 µM (inactive)
GI50 (HCC 2998): > 100 µM (inactive)
GI50 (HL-60): > 100 µM (inactive)
GI50 (TK-10): > 100 µM (inactive)
GI50 (SK-OV-3): > 100 µM (inactive)
GI50 (SF-268): > 100 µM (inactive)
GI50 (HCT-15): 7.38 µM
GI50 (SF-539): > 100 µM (inactive)
GI50 (SNB-19): > 100 µM (inactive)
GI50 (NCI/ADR-RES): > 100 µM (inactive)
GI50 (IGROV-1): > 100 µM (inactive)
GI50 (OVCAR-5): > 100 µM (inactive)
GI50 (PC-3): > 100 µM (inactive)
GI50 (DU-145): > 100 µM (inactive)

CC(CCOc1c2ccoc2cc2oc(=O)ccc12)C1=CC(=O)C(C)(C)O1 (configuration not stated)
GI50 (MCF7): > 100 µM (inactive)
GI50 (SK-MEL-28): > 100 µM (inactive)
GI50 (NCI-H522): 13.9 µM (inactive)
GI50 (ACHN): > 100 µM (inactive)
GI50 (BT-549): 71 µM (inactive)
GI50 (SW-620): > 100 µM (inactive)
GI50 (KM12): > 100 µM (inactive)
GI50 (OVCAR-8): > 100 µM (inactive)
GI50 (U-251): > 100 µM (inactive)
GI50 (MDA-N): > 100 µM (inactive)
GI50 (OVCAR-4): 42 µM (inactive)
GI50 (SR): > 100 µM (inactive)
GI50 (SK-MEL-2): > 100 µM (inactive)
GI50 (LOX IMVI): > 100 µM (inactive)
GI50 (NCI-H226): > 100 µM (inactive)
GI50 (A549): > 100 µM (inactive)
GI50 (NCI-H23): > 100 µM (inactive)
GI50 (UO-31): > 100 µM (inactive)
GI50 (OVCAR-3): > 100 µM (inactive)
GI50 (CCRF-CEM): > 100 µM (inactive)
GI50 (SK-MEL-5): > 100 µM (inactive)
GI50 (M14): > 100 µM (inactive)
GI50 (HOP-62): > 100 µM (inactive)
GI50 (EKVX): > 100 µM (inactive)
GI50 (NCI-H460): > 100 µM (inactive)
GI50 (MOLT-4): > 100 µM (inactive)
GI50 (UACC-62): > 100 µM (inactive)
GI50 (SF-295): > 100 µM (inactive)
GI50 (SN12C): > 100 µM (inactive)
GI50 (Hs-578T): > 100 µM (inactive)
GI50 (MDA-MB-231): > 100 µM (inactive)
GI50 (K562): > 100 µM (inactive)
GI50 (COLO 205): > 100 µM (inactive)
GI50 (RXF 393): > 100 µM (inactive)
GI50 (UACC-257): > 100 µM (inactive)
GI50 (786-0): > 100 µM (inactive)
GI50 (HOP-92): > 100 µM (inactive)
GI50 (RPMI-8226): > 100 µM (inactive)
GI50 (HT-29): > 100 µM (inactive)
GI50 (CAKI-1): > 100 µM (inactive)
GI50 (HCT-116): > 100 µM (inactive)
GI50 (Malme-3M): > 100 µM (inactive)
GI50 (HCC 2998): > 100 µM (inactive)
GI50 (HL-60): > 100 µM (inactive)
GI50 (TK-10): > 100 µM (inactive)
GI50 (SK-OV-3): > 100 µM (inactive)
GI50 (SF-268): > 100 µM (inactive)
GI50 (HCT-15): > 100 µM
GI50 (SF-539): > 100 µM (inactive)
GI50 (SNB-19): > 100 µM (inactive)
GI50 (NCI/ADR-RES): > 100 µM (inactive)
GI50 (IGROV-1): > 100 µM (inactive)
GI50 (MDA-MB-435): > 100 µM (inactive)
GI50 (OVCAR-5): > 100 µM (inactive)
GI50 (PC-3): > 100 µM (inactive)
GI50 (DU-145): > 100 µM (inactive)
